This passage reports IC50 results from ChEMBL document CHEMBL1201862, “PubChem BioAssay data set” (2004).

The IC50 is the concentration at which inhibition is half-maximal.

The assay concerns the target Envelope glycoprotein gp160 (Human immunodeficiency virus 1, UniProt Q6QLK5). The assay can be described thus: cell-free HIV fusion peptide-binding blockers – biochemical, uHTS, fluorescence dequenching, […] (AID 1986).

Activity calls are given as the source filed them. No stated cut-off is given here; in the data, actives have a measured IC50 and inactives only a lower limit.

Envelope glycoprotein gp160, sequence (Q6QLK5 whole entry, the tested form may be a part): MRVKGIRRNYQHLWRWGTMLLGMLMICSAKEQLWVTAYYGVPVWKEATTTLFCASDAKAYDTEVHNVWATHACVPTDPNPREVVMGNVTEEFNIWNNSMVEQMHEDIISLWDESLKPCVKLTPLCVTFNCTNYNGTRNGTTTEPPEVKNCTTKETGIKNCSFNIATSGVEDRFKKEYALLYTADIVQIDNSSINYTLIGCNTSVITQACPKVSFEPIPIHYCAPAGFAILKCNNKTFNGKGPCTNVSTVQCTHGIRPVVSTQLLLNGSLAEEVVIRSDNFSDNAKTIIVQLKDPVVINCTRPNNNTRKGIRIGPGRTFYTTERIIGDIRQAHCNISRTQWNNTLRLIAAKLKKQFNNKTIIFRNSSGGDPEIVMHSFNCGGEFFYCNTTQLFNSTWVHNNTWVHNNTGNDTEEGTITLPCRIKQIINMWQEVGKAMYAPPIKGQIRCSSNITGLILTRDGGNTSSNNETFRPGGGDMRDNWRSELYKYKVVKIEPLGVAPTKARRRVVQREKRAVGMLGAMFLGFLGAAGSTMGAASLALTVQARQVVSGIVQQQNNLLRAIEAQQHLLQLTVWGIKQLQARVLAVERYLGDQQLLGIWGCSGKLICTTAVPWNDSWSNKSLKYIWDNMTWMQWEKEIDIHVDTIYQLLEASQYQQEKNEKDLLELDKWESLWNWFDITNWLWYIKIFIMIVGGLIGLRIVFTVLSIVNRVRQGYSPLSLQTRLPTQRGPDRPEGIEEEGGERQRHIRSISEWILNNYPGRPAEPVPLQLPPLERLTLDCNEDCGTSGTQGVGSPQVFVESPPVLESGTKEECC

`Cc1c(CCC(=O)O)c(=O)oc2c(C)c3occ(-c4ccc(Br)cc4)c3cc12`: the IC50 is 21.3 µM (active).
